The results in this text go back to patent publication US4254155A, “Preparing neohesperidin dihydrochalcone sweetener composition” (Chimicasa GmbH, priority 1979, dated 1981).

A short description of this data set: discoloration / colour of aqueous NHDC solution. It is filed as physicochemical. The following applies: over a period of time. An excerpt:
The preferred acidulants are weak organic C1 -C6 organic mono- or di-carboxylic acids.
The acidulant-like malic or citric acid is incorporated to lower the pH to less than 6.5, in order to remove the yellow color formed in aqueous solutions of NHDC-based compositions.

Take `COc1ccc(CCC(=O)c2c(O)cc(O[C@@H]3O[C@H](CO)[C@@H](O)[C@H](O)[C@H]3O[C@@H]3O[C@@H](C)[C@H](O)[C@@H](O)[C@H]3O)cc2O)cc1O` [NHDC, Neohesperidin dihydrochalcone]: the “discoloration of aqueous NHDC solution” value is on record as “yellow discoloration”.
